Reference: ChEMBL document CHEMBL2150937, “Elaiomycins D-F, antimicrobial and cytotoxic azoxides from Streptomyces sp. strain HKI0708” (J Nat Prod, 2012)
≈ marks a conversion by molar mass, not a printed value.

Key:
Aspergillus fumigatus = assay: Antifungal activity against Aspergillus fumigatus ATCC 46645 assessed as zone of inhibition at 50 ug/disc after 24 hrs by agar diffusion assay; assay type: functional; conditions: ATCC 46645, 24 h, read-out: IZ
Aspergillus terreus = assay: Antifungal activity against amphotericin-resistant Aspergillus terreus DSM 826 assessed as zone of inhibition at 50 ug/disc after 24 hrs by agar diffusion assay; assay type: functional; conditions: DSM 826, 24 h, read-out: IZ
Aspergillus niger = assay: Antifungal activity against Aspergillus niger DSM 737 assessed as zone of inhibition at 50 ug/disc after 24 hrs by agar diffusion assay; assay type: functional; conditions: DSM 737, 24 h, read-out: IZ
HUVEC = assay: Antiproliferative activity against HUVEC; assay type: functional; conditions: Homo sapiens
K562 = assay: Antiproliferative activity against human K562 cells; assay type: functional
HeLa = assay: Cytotoxicity against human HeLa cells; assay type: functional
Bacillus subtilis = assay: Antibacterial activity against Bacillus subtilis 6633 B1 assessed as zone of inhibition at 50 ug/disc after 24 hrs by agar diffusion assay; assay type: functional; conditions: 6633 B1, 24 h, read-out: IZ
Staphylococcus aureus [1] = assay: Antibacterial activity against Staphylococcus aureus 511 B3 assessed as zone of inhibition at 50 ug/disc after 24 hrs by agar diffusion assay; assay type: functional; conditions: 511 B3, 24 h, read-out: IZ
Escherichia coli = assay: Antibacterial activity against Escherichia coli 458 B4 assessed as zone of inhibition at 50 ug/disc after 24 hrs by agar diffusion assay; assay type: functional; conditions: 458 B4, 24 h, read-out: IZ
Pseudomonas aeruginosa [2] = assay: Antibacterial activity against Pseudomonas aeruginosa SG 137 B7 assessed as zone of inhibition at 50 ug/disc after 24 hrs by agar diffusion assay; assay type: functional; conditions: SG 137 B7, 24 h, read-out: IZ
Pseudomonas aeruginosa [3] = assay: Antibacterial activity against Pseudomonas aeruginosa K 799/61 B9 assessed as zone of inhibition at 50 ug/disc after 24 hrs by agar diffusion assay; assay type: functional; conditions: K 799/61 B9, 24 h, read-out: IZ
Staphylococcus aureus [4] = assay: Antibacterial activity against methicillin-resistant Staphylococcus aureus 134/93 R9 assessed as zone of inhibition at 50 ug/disc after 24 hrs by agar diffusion assay; assay type: functional; conditions: 134/93 R9, 24 h, read-out: IZ
Enterococcus faecalis = assay: Antibacterial activity against vancomycin-resistant Enterococcus faecalis 1528 R10 assessed as zone of inhibition at 50 ug/disc after 24 hrs by agar diffusion assay; assay type: functional; conditions: 1528 R10, 24 h, read-out: IZ
Mycolicibacterium vaccae = assay: Antibacterial activity against Mycobacterium vaccae 10670 M4 assessed as zone of inhibition at 50 ug/disc after 24 hrs by agar diffusion assay; assay type: functional; conditions: 10670 M4, 24 h, read-out: IZ
[5] = test system: Sporobolomyces salmonicolor; assay: Antifungal activity against Sporidiobolus salmonicolor 549 H4 assessed as zone of inhibition at 50 ug/disc after 24 hrs by agar diffusion assay; assay type: functional; conditions: 549 H4, 24 h, read-out: IZ
Candida albicans = assay: Antifungal activity against Candida albicans H8 assessed as zone of inhibition at 50 ug/disc after 24 hrs by agar diffusion assay; assay type: functional; conditions: H8, 24 h, read-out: IZ
Penicillium chrysogenum = assay: Antifungal activity against Penicillium notatum JP36 P1 assessed as zone of inhibition at 50 ug/disc after 24 hrs by agar diffusion assay; assay type: functional; conditions: JP36 P1, 24 h, read-out: IZ
[6] = Cytotoxicity against human CXF HT29 cells by propidium iodide-based fluorescence assay; assay type: functional, cell-based; conditions: HT-29
[7] = Cytotoxicity against human GXF251L cells by propidium iodide-based fluorescence assay; assay type: functional, cell-based; conditions: GXF 251L
[8] = Cytotoxicity against human LXFA 629L cells by propidium iodide-based fluorescence assay; assay type: functional, cell-based
[9] = Cytotoxicity against human LXFL 529L cells by propidium iodide-based fluorescence assay; assay type: functional, cell-based
[10] = Cytotoxicity against human MAXF 401NL cells by propidium iodide-based fluorescence assay; assay type: functional, cell-based
[11] = Cytotoxicity against human MEXF 462NL cells by propidium iodide-based fluorescence assay; assay type: functional, cell-based
[12] = Cytotoxicity against human OVXF 899L cells by propidium iodide-based fluorescence assay; assay type: functional, cell-based
[13] = Cytotoxicity against human PAXF 1657L cells by propidium iodide-based fluorescence assay; assay type: functional, cell-based
[14] = Cytotoxicity against human PRXF 22Rv1 cells by propidium iodide-based fluorescence assay; assay type: functional, cell-based, CWR22R
[15] = Cytotoxicity against human PXF 1752L cells by propidium iodide-based fluorescence assay; assay type: functional, cell-based
[16] = Cytotoxicity against human RXF 486L cells by propidium iodide-based fluorescence assay; assay type: functional, cell-based
[17] = Cytotoxicity against human UXF 1138L cells by propidium iodide-based fluorescence assay; assay type: functional, cell-based

COC[C@H](/N=[N+]([O-])/C=C/CCCCC(C)=O)[C@H](C)O [ELAIOMYCIN D]
zone of inhibition at 50 µg/disc (Aspergillus fumigatus): 0 mm
zone of inhibition at 50 µg/disc (Aspergillus terreus): 0 mm
zone of inhibition at 50 µg/disc (Aspergillus niger): 0 mm
GI50 (HUVEC): > 50 µg/mL
GI50 (K562): > 50 µg/mL
CC50 (HeLa): > 50 µg/mL
zone of inhibition at 50 µg/disc (Bacillus subtilis): 0 mm
zone of inhibition at 50 µg/disc (Staphylococcus aureus [1]): 0 mm
zone of inhibition at 50 µg/disc (Escherichia coli): 0 mm
zone of inhibition at 50 µg/disc (Pseudomonas aeruginosa [2]): 0 mm
zone of inhibition at 50 µg/disc (Pseudomonas aeruginosa [3]): 0 mm
zone of inhibition at 50 µg/disc (Staphylococcus aureus [4]): 0 mm
zone of inhibition at 50 µg/disc (Enterococcus faecalis): 0 mm
zone of inhibition at 50 µg/disc (Mycolicibacterium vaccae): 0 mm
zone of inhibition at 50 µg/disc [5]: 0 mm
zone of inhibition at 50 µg/disc (Candida albicans): 0 mm
zone of inhibition at 50 µg/disc (Penicillium chrysogenum): 0 mm

CCCCCC(O)/C=C/[N+]([O-])=N/[C@@H](COC)[C@H](C)O (stereo partly specified) [ELAIOMYCIN E]
zone of inhibition at 50 µg/disc (Aspergillus fumigatus): 0 mm
zone of inhibition at 50 µg/disc (Aspergillus terreus): 0 mm
zone of inhibition at 50 µg/disc (Aspergillus niger): 0 mm
GI50 (HUVEC): 31.2 µg/mL (≈ 114 µM)
GI50 (K562): 30.3 µg/mL (≈ 110 µM)
CC50 (HeLa): > 50 µg/mL
zone of inhibition at 50 µg/disc (Bacillus subtilis): 10 mm
zone of inhibition at 50 µg/disc (Staphylococcus aureus [1]): 0 mm
zone of inhibition at 50 µg/disc (Escherichia coli): 0 mm
zone of inhibition at 50 µg/disc (Pseudomonas aeruginosa [2]): 10 mm
zone of inhibition at 50 µg/disc (Pseudomonas aeruginosa [3]): 0 mm
zone of inhibition at 50 µg/disc (Staphylococcus aureus [4]): 0 mm
zone of inhibition at 50 µg/disc (Enterococcus faecalis): 10 mm
zone of inhibition at 50 µg/disc (Mycolicibacterium vaccae): 0 mm
zone of inhibition at 50 µg/disc [5]: 0 mm
zone of inhibition at 50 µg/disc (Candida albicans): 0 mm
zone of inhibition at 50 µg/disc (Penicillium chrysogenum): 0 mm

CCCCCC/C=C\[N+]([O-])=N\[C@@H](COC)[C@H](C)O [ELAIOMYCIN]
zone of inhibition at 50 µg/disc (Aspergillus fumigatus): 0 mm
zone of inhibition at 50 µg/disc (Aspergillus terreus): 0 mm
zone of inhibition at 50 µg/disc (Aspergillus niger): 0 mm
IC50 [6]: 9.72 µM
IC50 [7]: 7.97 µM
IC50 [8]: 9.24 µM
IC50 [9]: 14.7 µM
IC50 [10]: 10.8 µM
IC50 [11]: 10.4 µM
IC50 [12]: 11.8 µM
IC50 [13]: 20.2 µM
IC50 [14]: 9.21 µM
IC50 [15]: 10.2 µM
IC50 [16]: > 30 µM
IC50 [17]: 14.7 µM
GI50 (HUVEC): 30.4 µg/mL (≈ 118 µM)
GI50 (K562): > 50 µg/mL
CC50 (HeLa): 35.1 µg/mL (≈ 136 µM)
zone of inhibition at 50 µg/disc (Bacillus subtilis): 10 mm
zone of inhibition at 50 µg/disc (Staphylococcus aureus [1]): 0 mm
zone of inhibition at 50 µg/disc (Escherichia coli): 0 mm
zone of inhibition at 50 µg/disc (Pseudomonas aeruginosa [2]): 0 mm
zone of inhibition at 50 µg/disc (Pseudomonas aeruginosa [3]): 0 mm
zone of inhibition at 50 µg/disc (Staphylococcus aureus [4]): 0 mm
zone of inhibition at 50 µg/disc (Enterococcus faecalis): 0 mm
zone of inhibition at 50 µg/disc (Mycolicibacterium vaccae): 14 mm
zone of inhibition at 50 µg/disc [5]: 12 mm
zone of inhibition at 50 µg/disc (Candida albicans): 0 mm
zone of inhibition at 50 µg/disc (Penicillium chrysogenum): 0 mm

CCCCCCCC/[N+]([O-])=N/[C@@H](COC)C(N)=O [ELAIOMYCIN H]
zone of inhibition at 50 µg/disc (Aspergillus fumigatus): 13 mm
zone of inhibition at 50 µg/disc (Aspergillus terreus): 15 mm
zone of inhibition at 50 µg/disc (Aspergillus niger): 0 mm
IC50 [6]: 1.15 µM
IC50 [7]: 4.65 µM
IC50 [8]: 1.2 µM
IC50 [9]: 8.57 µM
IC50 [10]: 3.74 µM
IC50 [11]: 3.95 µM
IC50 [12]: 9.84 µM
IC50 [13]: 5.42 µM
IC50 [14]: 8.01 µM
IC50 [15]: 5.99 µM
IC50 [16]: 9.49 µM
IC50 [17]: 8.88 µM
GI50 (HUVEC): 38.2 µg/mL (≈ 147 µM)
GI50 (K562): 37.5 µg/mL (≈ 145 µM)
CC50 (HeLa): 40.5 µg/mL (≈ 156 µM)
zone of inhibition at 50 µg/disc (Bacillus subtilis): 0 mm
zone of inhibition at 50 µg/disc (Staphylococcus aureus [1]): 0 mm
zone of inhibition at 50 µg/disc (Escherichia coli): 0 mm
zone of inhibition at 50 µg/disc (Pseudomonas aeruginosa [2]): 0 mm
zone of inhibition at 50 µg/disc (Pseudomonas aeruginosa [3]): 0 mm
zone of inhibition at 50 µg/disc (Staphylococcus aureus [4]): 0 mm
zone of inhibition at 50 µg/disc (Enterococcus faecalis): 0 mm
zone of inhibition at 50 µg/disc (Mycolicibacterium vaccae): 12 mm
zone of inhibition at 50 µg/disc [5]: 14 mm
zone of inhibition at 50 µg/disc (Candida albicans): 0 mm
zone of inhibition at 50 µg/disc (Penicillium chrysogenum): 0 mm

CCCCCCCC/[N+]([O-])=N/[C@@H](COC)[C@H](C)O [ELAIOMYCIN F]
zone of inhibition at 50 µg/disc (Aspergillus fumigatus): 0 mm
zone of inhibition at 50 µg/disc (Aspergillus terreus): 0 mm
zone of inhibition at 50 µg/disc (Aspergillus niger): 0 mm
GI50 (HUVEC): > 50 µg/mL
GI50 (K562): > 50 µg/mL
CC50 (HeLa): 30.5 µg/mL (≈ 117 µM)
zone of inhibition at 50 µg/disc (Bacillus subtilis): 0 mm
zone of inhibition at 50 µg/disc (Staphylococcus aureus [1]): 0 mm
zone of inhibition at 50 µg/disc (Escherichia coli): 0 mm
zone of inhibition at 50 µg/disc (Pseudomonas aeruginosa [2]): 0 mm
zone of inhibition at 50 µg/disc (Pseudomonas aeruginosa [3]): 0 mm
zone of inhibition at 50 µg/disc (Staphylococcus aureus [4]): 0 mm
zone of inhibition at 50 µg/disc (Enterococcus faecalis): 0 mm
zone of inhibition at 50 µg/disc (Mycolicibacterium vaccae): 0 mm
zone of inhibition at 50 µg/disc [5]: 0 mm
zone of inhibition at 50 µg/disc (Candida albicans): 0 mm
zone of inhibition at 50 µg/disc (Penicillium chrysogenum): 0 mm

COC[C@H](/N=[N+](\[O-])CCCCCCC(C)=O)[C@H](C)O [ELAIOMYCIN G]
zone of inhibition at 50 µg/disc (Aspergillus fumigatus): 0 mm
zone of inhibition at 50 µg/disc (Aspergillus terreus): 0 mm
zone of inhibition at 50 µg/disc (Aspergillus niger): 0 mm
GI50 (HUVEC): > 50 µg/mL
GI50 (K562): > 50 µg/mL
CC50 (HeLa): > 50 µg/mL
zone of inhibition at 50 µg/disc (Bacillus subtilis): 0 mm
zone of inhibition at 50 µg/disc (Staphylococcus aureus [1]): 0 mm
zone of inhibition at 50 µg/disc (Escherichia coli): 0 mm
zone of inhibition at 50 µg/disc (Pseudomonas aeruginosa [2]): 0 mm
zone of inhibition at 50 µg/disc (Pseudomonas aeruginosa [3]): 0 mm
zone of inhibition at 50 µg/disc (Staphylococcus aureus [4]): 0 mm
zone of inhibition at 50 µg/disc (Enterococcus faecalis): 0 mm
zone of inhibition at 50 µg/disc (Mycolicibacterium vaccae): 11 mm
zone of inhibition at 50 µg/disc [5]: 13 mm
zone of inhibition at 50 µg/disc (Candida albicans): 0 mm
zone of inhibition at 50 µg/disc (Penicillium chrysogenum): 0 mm
